Measurements published in patent US20260108546A1 (ELI LILLY AND COMPANY, priority 2024, published 2026).
Structures can show the parent of a compound that is named as a salt.

Molecular target: T1, hGIP-R (Homo sapiens, UniProt P48546)
T1 construct: expressed in transfected cells; host or cells: HEK-293 clonal cell lines
T1 sequence (P48546 22-466): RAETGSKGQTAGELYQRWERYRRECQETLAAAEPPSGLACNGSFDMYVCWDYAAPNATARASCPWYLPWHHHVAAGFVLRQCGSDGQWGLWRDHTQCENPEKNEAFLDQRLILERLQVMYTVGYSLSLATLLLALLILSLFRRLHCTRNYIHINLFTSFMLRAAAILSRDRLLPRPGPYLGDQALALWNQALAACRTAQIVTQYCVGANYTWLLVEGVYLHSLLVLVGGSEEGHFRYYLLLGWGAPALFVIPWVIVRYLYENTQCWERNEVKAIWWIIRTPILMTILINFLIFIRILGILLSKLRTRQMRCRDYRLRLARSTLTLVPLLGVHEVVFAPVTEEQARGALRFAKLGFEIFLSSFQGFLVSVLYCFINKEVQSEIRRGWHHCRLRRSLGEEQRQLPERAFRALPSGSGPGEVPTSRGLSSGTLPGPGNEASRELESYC
Experiment: Functional hGIP-R Assay (cAMP formation, HTRF)
Assay type: cell-based
Conditions: for Emax: cAMP efficacy, percent of maximal response to GIP(1-42)OH, 37° C., 0.1% bovine casein, arithmetic mean ± SEM; for EC50: cAMP potency, HEK-293 cells expressing hGIP-R, incubated at 37° C. in the presence of 0.1% bovine casein, geometric mean, read-out: Human GIP-R EC50, nM (SEM, n)
In short: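 HEK-293 cells expressing hGIP-R were given a 20-point compound series in DMEM with 0.1% casein, 250 μM IBMX, 1% DMSO, 30 min at 37 °C. cAMP was read by HTRF against a standard curve, expressed as % of human GIP (1-42) OH maximum; EC50 and Emax came from four-parameter fits.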

Row | SMILES | Emax [%] | EC50 [nM]
1 | [2H]C([2H])([2H])n1cc(C[C@H](C(=O)NC(C)(C)Cn2nc(C(F)(F)F)cc2-c2cnc(C(C)(C)O)nc2)N2CC[C@@]3(C[C@@H]3c3ccc(-c4cnc5nn(C6CC6)cc5c4)nc3C)C2=O)cn1 [Example 191, (R)-2-((1R,3R)-1-(6-(2-cyclopropyl-2H-pyrazolo[3,4-b]pyridin-5-yl)-2-methylpyridin-3-yl)-4-oxo-5-azaspiro[2.4]heptan-5-yl)-N-(1-(5-(2-(2-hydroxypropan-2-yl)pyrimidin-5-yl)-3-(trifluoromethyl)-1H-pyrazol-1-yl)-2-methylpropan-2-yl)-3-(1-(methyl-d3)-1H-pyrazol-4-yl)propanamide] | 78.5 ± 0.865 | 2.89
2 | [2H]C([2H])([2H])n1cc(C[C@H](C(=O)NC(C)(C)Cn2nc(C(F)(F)F)cc2-c2cnc(C(C)(C)O)nc2)N2CC[C@@]3(C[C@@H]3c3ccc(-c4cnc5nn(C)cc5c4)cc3Cl)C2=O)cn1 [Example 193, (R)-2-((1S,3R)-1-(2-chloro-4-(2-methyl-2H-pyrazolo[3,4-b]pyridin-5-yl)phenyl)-4-oxo-5-azaspiro[2.4]heptan-5-yl)-N-(1-(5-(2-(2-hydroxypropan-2-yl)pyrimidin-5-yl)-3-(trifluoromethyl)-1H-pyrazol-1-yl)-2-methylpropan-2-yl)-3-(1-(methyl-d3)-1H-pyrazol-4-yl)propanamide] | 85.5 ± 0.117 | 1.33
3 | [2H]C([2H])([2H])n1cc(C[C@H](C(=O)NC(C)(C)Cn2nc(C(F)(F)F)cc2-c2ccc(C(C)(C)OP(=O)(O)O)nc2)N2CC[C@@]3(C[C@@H]3c3ccc(-c4cnc5nn(C)cc5c4)cc3Cl)C2=O)cn1 [Example 195, 2-(5-(1-(2-((R)-2-((1S,3R)-1-(2-Chloro-4-(2-methyl-2H-pyrazolo[3,4-b]pyridin-5-yl)phenyl)-4-oxo-5-azaspiro[2.4]heptan-5-yl)-3-(1-(methyl-d3)-1H-pyrazol-4-yl)propanamido)-2-methylpropyl)-3-(trifluoromethyl)-1H-pyrazol-5-yl)pyridin-2-yl)propan-2-yl dihydrogen phosphate, ammonia salt] | 88.8 | 2.36
4 | Cc1nc(-c2cnc3nc(C4CC4)cn3c2)ccc1[C@H]1C[C@@]12CCN([C@H](Cc1cnn(C(F)F)c1)C(=O)NC(C)(C)Cn1nc(C(F)(F)F)cc1-c1ccc(C(C)(C)OP(=O)(O)O)nc1)C2=O [Example 197, 2-(5-(1-(2-((R)-2-((1R,3R)-1-(6-(2-Cyclopropylimidazo[1,2-a]pyrimidin-6-yl)-2-methylpyridin-3-yl)-4-oxo-5-azaspiro[2.4]heptan-5-yl)-3-(1-(difluoromethyl)-1H-pyrazol-4-yl)propanamido)-2-methylpropyl)-3-(trifluoromethyl)-1H-pyrazol-5-yl)pyridin-2-yl)propan-2-yl dihydrogen phosphate, ammonia salt] | 119 | 0.66
5 | [2H]C([2H])([2H])n1cc(C[C@H](C(=O)NC(C)(C)Cn2nc(C(F)(F)F)cc2-c2cnc(C(C)(C)OP(=O)(O)O)nc2)N2CC[C@@]3(C[C@@H]3c3ccc(-c4cnc5nn(C)cc5c4)cc3Cl)C2=O)cn1 [Example 198, 2-(5-(1-(2-((R)-2-((1S,3R)-1-(2-Chloro-4-(2-methyl-2H-pyrazolo[3,4-b]pyridin-5-yl)phenyl)-4-oxo-5-azaspiro[2.4]heptan-5-yl)-3-(1-(methyl-d3)-1H-pyrazol-4-yl)propanamido)-2-methylpropyl)-3-(trifluoromethyl)-1H-pyrazol-5-yl)pyrimidin-2-yl)propan-2-yl dihydrogen phosphate, ammonia salt] | 90.3 | 1.81

Stronger by EC50, values ahead:

Row | Emax [%] | EC50 [nM] | SMILES
6 | 95.7 | 0.601 | Cc1nc(-c2cnc3nc(C4CC4)cn3c2)ccc1[C@H]1C[C@@]12CCN([C@H](Cc1cnn(C(F)F)c1)C(=O)NC(C)(C)Cn1nc(C(F)(F)F)cc1-c1cnc(C(C)(C)OP(=O)(O)O)nc1)C2=O [Example 196, 2-(5-(1-(2-((R)-2-((1R,3R)-1-(6-(2-Cyclopropylimidazo[1,2-a]pyrimidin-6-yl)-2-methylpyridin-3-yl)-4-oxo-5-azaspiro[2.4]heptan-5-yl)-3-(1-(difluoromethyl)-1H-pyrazol-4-yl)propanamido)-2-methylpropyl)-3-(trifluoromethyl)-1H-pyrazol-5-yl)pyrimidin-2-yl)propan-2-yl dihydrogen phosphate, ammonia salt]
7 | 64.1 ± 0.489 | 0.567 | [2H]C([2H])([2H])n1cc(C[C@H](C(=O)NC(C)(C)Cn2nc(C(F)(F)F)cc2-c2ccc(C(C)(C)O)nc2)N2CC[C@@]3(C[C@@H]3c3ccc(-c4cnc5nn(C)cc5c4)cc3Cl)C2=O)cn1 [Example 194, (R)-2-((1S,3R)-1-(2-chloro-4-(2-methyl-2H-pyrazolo[3,4-b]pyridin-5-yl)phenyl)-4-oxo-5-azaspiro[2.4]heptan-5-yl)-N-(1-(5-(6-(2-hydroxypropan-2-yl)pyridin-3-yl)-3-(trifluoromethyl)-1H-pyrazol-1-yl)-2-methylpropan-2-yl)-3-(1-(methyl-d3)-1H-pyrazol-4-yl)propanamide]
8 | 129 | 0.0409 | [2H]C([2H])([2H])n1cc(C[C@H](C(=O)NC(C)(C)Cn2nc(C(F)(F)F)cc2-c2ccc(C(C)(C)O)nc2)N2CC[C@@]3(C[C@@H]3c3ccc(-c4cnc5nc(COC)cn5c4)nc3C3CC3)C2=O)cn1 [Example 192, (R)-2-((1R,3R)-1-(2-cyclopropyl-6-(2-(methoxymethyl)imidazo[1,2-a]pyrimidin-6-yl)pyridin-3-yl)-4-oxo-5-azaspiro[2.4]heptan-5-yl)-N-(1-(5-(6-(2-hydroxypropan-2-yl)pyridin-3-yl)-3-(trifluoromethyl)-1H-pyrazol-1-yl)-2-methylpropan-2-yl)-3-(1-(methyl-d3)-1H-pyrazol-4-yl)propanamide]
